The values below come from patent publication US12037339B2, “Substituted imidazoles as GLP-1 receptor agonists” (Eccogene Inc., priority 2020, dated 2024).

The test concerns the target (Homo sapiens, UniProt P43220). Description: h-GLP-1 activity assay (cAMP HTRF, HEK293 cells with stable expression of human GLP-1). In kind it is cell-based. As to conditions: relative EC50, 10 nM human GLP-1 set as 100% response, 30 min at 37° C. Here is the method:
Human GLP-1 agonizing activity was detected in HEK293 cells with stable expression of human GLP-1 by Cisbio cAMP Gs dynamic kit (Catalog #62AM4PEC) according to manufacturer's protocol. Briefly, cells were collected and resuspended in assay buffer containing 0.1% BSA and 0.5 mM of IBMX at concentration to 2.5×10^5 cells/mL. Two μL 5× compound solution and 8 μL cell suspension were added to each well of low-volume 384 white assay plate. After 30 min incubation at 37° C., 5 μL cAMP-d2 working solution and 5 μL anti-cAMP antibody-cryptate were added to each well, and incubate at room temperature for 1 hr. Series dilution of cAMP was used as standard. Human GLP-1 (7-37) was used as positive control and 10 nM human GLP-1 was set as 100% response. HTRF signals were read at 665 and 615 nm with EnVision plate reader and calculated cAMP concentration by interpolation to the standard curve. The EC50 value of the tested compounds was calculated by fitting the dose response curve using a 4-parameter non-linear regression routine and relative EC50 was presented in Table 29.
On the technique in general: Time-resolved FRET reads energy transfer from a long-lived donor to a nearby acceptor.

Chain of (Homo sapiens, UniProt P43220) (P43220 24-463): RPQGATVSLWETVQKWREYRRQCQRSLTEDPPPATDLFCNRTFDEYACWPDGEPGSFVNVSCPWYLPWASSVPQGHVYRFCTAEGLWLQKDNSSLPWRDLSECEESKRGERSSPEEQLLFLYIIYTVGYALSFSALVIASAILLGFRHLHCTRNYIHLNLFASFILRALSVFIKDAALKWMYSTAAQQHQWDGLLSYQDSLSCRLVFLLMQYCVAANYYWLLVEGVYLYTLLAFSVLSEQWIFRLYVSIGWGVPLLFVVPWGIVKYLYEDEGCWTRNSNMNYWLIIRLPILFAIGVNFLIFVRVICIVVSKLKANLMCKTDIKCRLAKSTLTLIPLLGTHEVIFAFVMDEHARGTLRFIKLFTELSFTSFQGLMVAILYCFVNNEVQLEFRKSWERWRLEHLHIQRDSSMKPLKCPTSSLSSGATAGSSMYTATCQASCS

On to `C[C@H]1c2c(nn(-c3ccc(F)c(F)c3)c2-n2ccn(-c3ccc4c(cnn4C)c3F)c2=O)CCN1C(=O)c1cn2cc([C@@H]3CCOC(C)(C)C3)ccc2c1C1(c2noc(=O)[nH]2)CC1` (single isomer, unassigned) [Compound 70], for which the EC50 (commonly the concentration that produces a half-maximal response) is less than 20 nM.

Compound `C[C@H]1c2c(nn(-c3ccc(F)c(C4CC4)c3)c2-n2ccn(-c3ccc4c(cnn4C)c3F)c2=O)CCN1C(=O)c1cc2nc([C@@H]3CCOC(C)(C)C3)ccn2c1C1(c2noc(=O)[nH]2)CC1` (single isomer, unassigned) [Compound 102] returned an EC50 of less than 20 nM.

In the case of `C[C@H]1c2c(nn(-c3ccc(F)c(OC(F)(F)F)c3)c2-n2ccn(-c3ccc4c(cnn4C)c3F)c2=O)CCN1C(=O)c1cc2cc([C@@H]3CCOC(C)(C)C3)ccn2c1C1(c2noc(=O)[nH]2)CC1` (single isomer, unassigned) [Compound 81], the 50% effective concentration (EC50) was less than 20 nM.

In turn, `C[C@H]1c2c(nn(C3CCC(F)(F)CC3)c2-n2ccn(-c3ccc4c(cnn4C)c3F)c2=O)CCN1C(=O)c1cc2cc([C@@H]3CCOC(C)(C)C3)ccc2n1C1(c2noc(=O)[nH]2)CC1` (single isomer, unassigned) [Compound 44] displayed an EC50 of less than 20 nM.

In turn, `C[C@H]1c2c(nn(C34CC(C3)C4)c2-n2ccn(-c3ccc4c(cnn4C)c3F)c2=O)CCN1C(=O)c1cc2cc([C@H]3CCOC(C)(C)C3)ccc2n1C1(c2noc(=O)[nH]2)CC1` (single isomer, unassigned) [Compound 60] gave an EC50 of less than 20 nM.

As for `CC1c2c(-n3ccn(-c4ccc5c(cnn5C)c4F)c3=O)c(-c3ccc(F)cc3)nn2CCN1C(=O)c1cn2cc(C3CCOCC3)ccc2c1C1(c2noc(=O)[nH]2)CC1` (racemic) [Compound 23, 3-(1-(2-(3-(3-(4-fluoro-1-methyl-1H-indazol-5-yl)-2-oxo-2,3-dihydro-1H-imidazol-1-yl)-2-(4-fluorophenyl)-4-methyl-4,5,6,7-tetrahydropyrazolo[1,5-a]pyrazine-5-carbonyl)-6-(tetrahydro-2H-pyran-4-yl)indolizin-1-yl)cyclopropyl)-1,2,4-oxadiazol-5(4H)-one], the concentration for a half-maximal effect (EC50) lay in the range of 20 to 100 nM.

`Cc1cc(-n2nc3c(c2-n2ccn(-c4ccc5c(cnn5C)c4F)c2=O)[C@H](C)N(C(=O)c2nn4cc([C@@H]5CCOC(C)(C)C5)ccc4c2C2(c4noc(=O)[nH]4)CC2)CC3)cc(C)c1F` (single isomer, unassigned) [Compound 83]: the EC50 was less than 20 nM.

For `Cc1cc(-n2nc3c(c2-n2ccn(-c4ccc5c(cnn5C)c4F)c2=O)[C@H](C)N(C(=O)c2cn4cc(-c5ccnc(C(F)(F)F)c5)ccc4c2C2(c4noc(=O)[nH]4)CC2)CC3)cc(C)c1F` [Compound 2, (S)-3-(1-(2-(3-(3-(4-fluoro-1-methyl-1H-indazol-5-yl)-2-oxo-2,3-dihydro-1H-imidazol-1-yl)-2-(4-fluoro-3,5-dimethylphenyl)-4-methyl-4,5,6,7-tetrahydro-2H-pyrazolo[4,3-c]pyridine-5-carbonyl)-6-(2-(trifluoromethyl)pyridin-4-yl)indolizin-1-yl)cyclopropyl)-1,2,4-oxadiazol-5(4H)-one], the EC50 is less than 20 nM.

As for `Cc1cc(-c2nn3c(c2-n2ccn(-c4ccc5c(cnn5C)c4F)c2=O)[C@@H](C)N(C(=O)c2cc4cc([C@@H]5CCOC(C)(C)C5)ccn4c2C2(c4noc(=O)[nH]4)CC2)CC3)cc(C)c1F` (single isomer, unassigned) [Compound 68], the EC50 is less than 20 nM.

Consider `Cc1cc(-n2nc3c(c2-n2ccn(-c4ccc5c(cnn5C)c4F)c2=O)[C@H](C)N(C(=O)c2cn4cc([C@@H]5CCOC(C)(C)C5)ccc4c2[C@@]2(c4noc(=O)[nH]4)C[C@@H]2C)CC3)cc(C)c1F` (single isomer, unassigned) [Compound 3], for which the 50% effective concentration (EC50) was less than 20 nM.

Compound `C[C@H]1c2c(nn(-c3ccc(F)c(Cl)c3)c2-n2ccn(-c3ccc4c(cnn4C)c3F)c2=O)CCN1C(=O)c1cn2cc([C@@H]3CCOC(C)(C)C3)ccc2c1C1(c2noc(=O)[nH]2)CC1` (single isomer, unassigned) [Compound 12] came in with a 50% effective concentration (EC50) of less than 20 nM.

Consider `C[C@H]1c2c(nn(-c3ccc(F)c(Cl)c3)c2-n2ccn(-c3ccc4c(cnn4C)c3F)c2=O)CCN1C(=O)c1cc2cc([C@@H]3CCOC(C)(C)C3)ccn2c1C1(c2noc(=O)[nH]2)CC1` (single isomer, unassigned) [Compound 67], for which the EC50 was less than 20 nM.

`C[C@@H]1c2c(-n3ccn(-c4ccc5c(cnn5C)c4F)c3=O)c(-c3ccc(F)c(C(F)(F)F)c3)nn2CCN1C(=O)c1cc2cc([C@@H]3CCOC(C)(C)C3)ccc2n1C1(c2noc(=O)[nH]2)CC1` (single isomer, unassigned) [Compound 66] showed a concentration giving a half-maximal response (EC50) greater than 100 nM.

Compound `C[C@H]1c2c(-n3ccn(-c4ccc5c(cnn5C)c4F)c3=O)c(-c3ccc(F)cc3)nn2CCN1C(=O)c1cn2cc([C@@H]3CCOC(C)(C)C3)ccc2c1C1(c2noc(=O)[nH]2)CC1` (single isomer, unassigned) [Compound 14] showed an EC50 of less than 20 nM.

In turn, `C[C@H]1c2c(nn(-c3ccc(F)c(C4CC4)c3)c2-n2ccn(-c3ccc4c(cnn4C)c3F)c2=O)CCN1C(=O)c1cc2cc([C@@H]3CCOC(C)(C)C3)c(F)cn2c1C1(c2noc(=O)[nH]2)CC1` (single isomer, unassigned) [Compound 94] showed an EC50 of 20 to 100 nM.

The compound `Cc1cc(-n2nc3c(c2-n2ccn(-c4ccc5c(cnn5C)c4F)c2=O)[C@H](C)N(C(=O)c2nn4cc([C@H]5CCOC(C)(C)C5)ccc4c2C2(c4noc(=O)[nH]4)CC2)CC3)cc(C)c1F` (single isomer, unassigned) [Compound 82] registered an EC50 of 20 to 100 nM.

Compound `Cc1cc(-n2nc3c(c2-n2ccn(-c4ccn5c(C)nnc5c4)c2=O)[C@H](C)N(C(=O)c2cn4cc([C@@H]5CCOC(C)(C)C5)ccc4c2C2(c4noc(=O)[nH]4)CC2)CC3)cc(C)c1F` (single isomer, unassigned) [Compound 79] had an EC50 of less than 20 nM.

With `C[C@H]1c2c(nn(-c3cc(F)c(F)c(F)c3)c2-n2ccn(-c3ccc4c(cnn4C)c3F)c2=O)CCN1C(=O)c1cc2cc([C@@H]3CCOC(C)(C)C3)ccn2c1C1(c2noc(=O)[nH]2)CC1` (single isomer, unassigned) [Compound 72], the concentration for a half-maximal effect (EC50) is less than 20 nM.

With `Cc1cc(-n2nc3c(c2-n2ccn(-c4ccc5c(cnn5C)c4F)c2=O)[C@H](C)N(C(=O)c2cc4cc(C5CCOC(C)(C)C5)ccc4n2C2(c4nnc(O)s4)CC2)CC3)cc(C)c1F` (mixture of isomers) [Compound 47, 1-((4S)-5-(5-(2,2-dimethyltetrahydro-2H-pyran-4-yl)-1-(1-(5-hydroxy-1,3,4-thiadiazol-2-yl)cyclopropyl)-1H-indole-2-carbonyl)-2-(4-fluoro-3,5-dimethylphenyl)-4-methyl-4,5,6,7-tetrahydro-2H-pyrazolo[4,3-c]pyridin-3-yl)-3-(4-fluoro-1-methyl-1H-indazol-5-yl)-1,3-dihydro-2H-imidazol-2-one], the concentration for a half-maximal effect (EC50) was less than 20 nM.

`C[C@H]1c2c(nn(C34CC(C3)C4)c2-n2ccn(-c3ccc4c(cnn4C)c3F)c2=O)CCN1C(=O)c1cc2cc([C@@H]3CCOC(C)(C)C3)ccc2n1C1(c2noc(=O)[nH]2)CC1` (single isomer, unassigned) [Compound 61] registered a concentration for a half-maximal effect (EC50) of 20 to 100 nM.

Regarding `Cc1cc(-n2nc3c(c2-n2ccn(-c4ccn5c(C)ncc5c4)c2=O)[C@H](C)N(C(=O)c2cn4cc([C@@H]5CCOC(C)(C)C5)ccc4c2C2(c4noc(=O)[nH]4)CC2)CC3)cc(C)c1F` (single isomer, unassigned) [Compound 17], the concentration for a half-maximal effect (EC50) is less than 20 nM.

For `Cc1cc(-n2nc3c(c2-n2ccn(-c4ccc5c(cnn5C)c4F)c2=O)[C@H](C)N(C(=O)c2cn4cc([C@@H]5CCOC(C)(C)C5)ccc4c2[C@]2(c4noc(=O)[nH]4)C[C@@H]2C)CC3)cc(C)c1F` (single isomer, unassigned) [Compound 6], the concentration giving a half-maximal response (EC50) fell in the range of 20 to 100 nM.

`Cc1cc(-n2nc3c(c2-n2ccn(-c4ccc5c(cnn5C)c4F)c2=O)[C@H](C)N(C(=O)c2cn4cc([C@H]5CCOC(C)(C)C5)ccc4c2Cc2noc(=O)[nH]2)CC3)cc(C)c1F` (single isomer, unassigned) [Compound 22] had an EC50 of 20 to 100 nM.

The compound `Cc1cc(-n2nc3c(c2-n2ccn(-c4ccc5c(cnn5C)c4F)c2=O)[C@H](C)N(C(=O)c2cn4cc([C@H]5CCOC6(CC6)C5)ccc4c2C2(c4noc(=O)[nH]4)CC2)CC3)cc(C)c1F` (single isomer, unassigned) [Compound 86] had an EC50 of less than 20 nM.

Compound `Cc1cc(-n2nc3c(c2-n2ccn(-c4ccc5c(cnn5C)c4F)c2=O)CN(C(=O)c2cc4cc(C5CCOCC5)ccc4n2-c2cccc4[nH]nnc24)CC3)cc(C)c1F` [Compound 59, 1-(5-(1-(1H-benzo[d][1,2,3]triazol-4-yl)-5-(tetrahydro-2H-pyran-4-yl)-1H-indole-2-carbonyl)-2-(4-fluoro-3,5-dimethylphenyl)-4,5,6,7-tetrahydro-2H-pyrazolo[4,3-c]pyridin-3-yl)-3-(4-fluoro-1-methyl-1H-indazol-5-yl)-1,3-dihydro-2H-imidazol-2-one] showed an EC50 greater than 100 nM.

`C[C@H]1c2c(nn(-c3ccc(F)c(C(F)(F)F)c3)c2-n2ccn(-c3ccc4c(cnn4C)c3F)c2=O)CCN1C(=O)c1cn2cc([C@@H]3CCOC(C)(C)C3)ccc2c1C1(c2noc(=O)[nH]2)CC1` (single isomer, unassigned) [Compound 71] came in with an EC50 of less than 20 nM.

Compound `C[C@H]1c2c(nn(-c3ccc(F)c(C4CC4)c3)c2-n2ccn(-c3ccc4c(cnn4C)c3F)c2=O)CCN1C(=O)c1c(C2(c3noc(=O)[nH]3)CC2)c2ccc([C@@H]3CCOC(C)(C)C3)cn2c1Cl` (single isomer, unassigned) [Compound 85] had an EC50 of 20 to 100 nM.
